In PMC5325191, “Biotransformation of a potent anabolic steroid, mibolerone, with Cunninghamella blakesleeana, C. echinulata, and Macrophomina phaseolina, and biological activity evaluation of its metabolites” (PLoS ONE, 2017):
Entries after “also recorded” stand apart in the source; their conditions may differ. Like-named read-outs stand apart in the source and are kept apart here.

What was measured:
[1] = test system: progesterone receptor (PR); set-up: method as in PMID 18515094, PMID 24552459, PMID 11953818; conditions: mibolerone eliminates PR expression; 5α-dehydrotestosterone reduces PR to basal levels; ref [1]–[4]; cited from earlier work
[2] = test system: Leishmania major promastigotes; test: leishmanicidal activity assay (72 h, microscopic counting); type: cell-based; conditions: for IC50: Leishmania major, read-out: Leishmanicidal activity IC50 ± SD
Description: Leishmania major (DESTO, Pakistan) was cultured in a mixture of NNN-biphasic medium, and normal physiological saline solution. L. major promastigotes were grown on RPMI 1640 medium, supplemented with fetal bovine serum (FBS) (10% heat inactivated). Parasites were centrifuged (at log phase) for 10 min at 2,000 rpm and washed thrice with saline. The final density of fresh culture (10^6 cells/mL) was acquired through dilution of parasites. Sample solution of 1 mg of test compounds was prepared in a mixture 50 μL of DMSO and 950 μL of RPMI media. Fully dissolved compounds were transferred to 96-well plate. The first row of 96-well plate received 180 μL of the medium, while the remaining wells received 100 μL medium. Test compounds (20 μL each) were added into the medium containing wells, followed by serial dilution. The parasite culture (100 μL) was then transferred to each well. Negative controls comprised of only the growth medium, while standard leishmanicidal drugs (amphotericin or pentamidine) were used as positive controls. The plate was then incubated for 72 h at 21–22°C. The inhibitory effect of test compounds on the culture was analyzed microscopically on an improved Neubauer counting chamber. IC50 values were calculated through Ezfit 5.03 Perella Scientific software (USA).

[3] = test system: 3T3 cell line (mouse fibroblast); test: MTT cytotoxicity assay, 3T3; type: cell-based; conditions: for IC50: read-out: 3T3 Cell line IC50 ± SD
Description: (§1) MTT (3-(4,5-dimethyl thiazol-2yl)-2,5-diphenyl tetrazolium bromide) assay was employed to study the cytotoxic activity against HeLa (human cervical carcinoma, provided by Prof. Dr. Anwar Ali Siddiqui from Aga Khan University, Karachi, Pakistan), and mouse fibroblast 3T3 (ATCC® CRL-1658, purchased from American Type Culture Collection, ATCC, Virginia, USA) cell lines. The cells (1 × 10^5 /well) were plated in 0.2 mL of DMEM high glucose medium/well in 96-well plates. The cells were treated for 24 hours with test compounds in the range of 25, 50, 75, 100, and 200 μM concentrations, respectively. For the MTT assay, the medium from the wells was removed carefully after 24 hours treatment. Each well was washed with 1X PBS for 2–3 times, and 200 μL of MTT (5 mg/mL) was added in to media containing wells (1:10). The plates were incubated for 4 hours at 37°C, in a 5% CO2 incubator. After incubation, MTT was removed and 0.1 mL of DMSO was added to each well and mixed by keeping on a stirrer. The presence of viable cells was visualized by the development of purple color due to formation of the formazan crystals. The plates were observed under spectrophotometer (Spectramax) and absorbance was taken at 545 and 570 nm for cancer and normal cell lines, respectively.

[4] = test system: HeLa cancer cell line (human cervical carcinoma); test: MTT cytotoxicity assay, HeLa; type: cell-based; conditions: 24 hours treatment, read-out: HeLa Cell line IC50 ± SD
Description: as §1

[5] = target: T1, β-glucuronidase enzyme (E.C. 3.2.1.31, bovine liver) (Bos taurus, UniProt A3KMY8); test: β-glucuronidase inhibition assay (p-nitrophenyl-β-D-glucuronide, absorbance 405 nm); type: biochemical; conditions: for β-glucuronidase inhibitory activity IC50 ± SD: in vitro, bovine liver enzyme, 37°C, triplicate
T1 sequence (A3KMY8 24-652): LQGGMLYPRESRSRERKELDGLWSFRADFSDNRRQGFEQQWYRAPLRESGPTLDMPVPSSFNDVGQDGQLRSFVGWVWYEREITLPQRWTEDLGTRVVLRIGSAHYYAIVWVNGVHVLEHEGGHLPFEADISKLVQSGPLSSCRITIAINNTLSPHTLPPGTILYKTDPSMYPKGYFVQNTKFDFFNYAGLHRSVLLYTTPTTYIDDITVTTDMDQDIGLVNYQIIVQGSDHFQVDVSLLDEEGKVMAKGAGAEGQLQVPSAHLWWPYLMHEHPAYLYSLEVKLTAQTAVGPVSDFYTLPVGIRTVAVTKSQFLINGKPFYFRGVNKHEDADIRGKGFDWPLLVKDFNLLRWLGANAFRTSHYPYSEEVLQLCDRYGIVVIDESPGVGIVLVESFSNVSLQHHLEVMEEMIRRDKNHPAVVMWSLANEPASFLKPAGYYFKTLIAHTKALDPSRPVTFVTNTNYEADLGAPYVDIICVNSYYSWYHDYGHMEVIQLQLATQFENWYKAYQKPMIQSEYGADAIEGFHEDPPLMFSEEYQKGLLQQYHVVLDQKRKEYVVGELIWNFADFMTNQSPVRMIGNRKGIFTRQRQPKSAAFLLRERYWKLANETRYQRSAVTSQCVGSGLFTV
Description: The inhibition of β-glucuronidase enzyme (E.C. 3.2.1.31, bovine liver) by test compounds was determined on a spectrophotometer by measuring the absorbance of p-nitrophenol at 405 nm, produced from the substrate. The reaction mixture comprised 185 μL of 0.1 M acetate buffer, and 5 μL of test compound solution, and 10 μL of (1U) enzyme solution in a 96-well plate. The mixture was incubated at 37°C for 30 min. The test compounds were solubilized in DMSO (100%), and 5 μL volume was added in each well (2% of total volume). […] The plates were read on a multiplate reader (SpectraMax plus 384) at 405 nm and 37°C, after addition of 50 μL of 0.4 mM p-nitrophenyl-β-D-glucuronide. All assays were performed in triplicate. IC50 values were calculated through EZ-Fit software (Perrella Scientific Inc., Amherst, MA, USA).

[6] = Mus musculus, NIH3T3, 24 hours treatment
[7] = L. major promastigotes, 72 h at 21–22°C

| SMILES | IC50 ([2]; 72 h) [µM] | IC50 [3, 6] [µM] | IC50 ([4]; Homo sapiens, HeLa, 24 h) [µM] | β-glucuronidase inhibitory activity IC50 ± SD [5] | further results |
| --- | --- | --- | --- | --- | --- |
| C[C@]12CCC(=O)C[C@@H]1CC[C@@H]1[C@@H]2CC[C@]2(C)[C@@H](O)CC[C@@H]12 [5α-dehydrotestosterone] |  |  |  |  | dose that eliminates / reduces to basal levels progesterone receptor expression [1]: 10 to 100 nM |
| C[C@@H]1[C@H](O)[C@@H](C)/C=C/C=C/C=C/C=C/C=C/C=C/C=C/[C@H](O[C@@H]2O[C@H](C)[C@@H](O)[C@H](N)[C@@H]2O)C[C@@H]2O[C@](O)(C[C@@H](O)C[C@@H](O)[C@H](O)CC[C@@H](O)C[C@@H](O)CC(=O)O[C@H]1C)C[C@H](O)[C@H]2C(=O)O [Amphotericin B, reference compound] | 0.29 ± 0.05 |  |  |  |  |
| N.N.[Cl][Pt][Cl] [Cisplatin, reference compound] |  |  |  |  | IC50 ([3]; 24 hours treatment): 39.7 ± 2.7 µM; IC50 [4]: 38.5 ± 1.8 µM |
| C[C@@H]1CC2=CC(=O)CC[C@@H]2[C@H]2CC[C@@]3(C)[C@@H](CC[C@]3(C)O)[C@@H]21 [Compound 1, 17β-Hydroxy-7α,17α-dimethylestr-4-en-3-one, reference compound] | 29.6 ± 0.88 | 46.3 ± 11.7 | 35.7 ± 4.46 |  | IC50 [5]: 43 ± 1.24 µM; dose that eliminates / reduces to basal levels progesterone receptor expression [1]: 1 nM |
| CC1CC2=CC(=O)CCC2(O)C2CCC3(C)C(CCC3(C)O)C12 (stereo not drawn) [Compound 2, 10β,17β-Dihydroxy-7α,17α-dimethylestr-4-en-3-one] |  | 43.3 ± 7.7 | 46.5 ± 5.4 | Inactive | Leishmanicidal activity IC50 ± SD [2, 7]: Inactive |
| C[C@H]1[C@@H]2[C@H](CC[C@@]3(C)[C@H]2CC[C@]3(C)O)[C@H]2CCC(=O)C=C2[C@@H]1O [Compound 3, 6β,17β-Dihydroxy-7α,17α-dimethylestr-4-en-3-one] | 79.09 ± 0.06 | 65.6 ± 2.5 | 108 ± 4 | Inactive |  |
| CC1C(O)C2=CC(=O)CCC2(O)C2CCC3(C)C(CCC3(C)O)C12 (stereo not drawn) [Compound 4, 6β,10β,17β-Trihydroxy-7α,17α-dimethylestr-4-en-3-one] |  | 89.4 ± 2.7 | 152 ± 2.1 | Inactive | Leishmanicidal activity IC50 ± SD [2, 7]: Inactive |
| CC1CC2=CC(=O)CCC2C2C(O)CC3(C)C(CCC3(C)O)C12 (stereo not drawn) [Compound 8, 11β,17β-Dihydroxy-7α,17α-dimethylestr-4-en-3-one] | 70.09 ± 0.05 |  | 34.2 ± 5.3 | Inactive | 3T3 Cell line IC50 ± SD ([3]; 24 hours treatment): no cytotoxicity; also recorded: Inactive; IC50 [4]: 34.1 ± 5.3 µM |
| N=C(N)c1ccc(OCCCCCOc2ccc(C(=N)N)cc2)cc1 [Pentamidine, reference compound] |  |  |  |  | IC50 [2, 7]: 5.09 ± 0.09 µM |
